Measured values from patent US20260000695A1, “SOLID AND ORAL ETOPOSIDE TONIRIBATE COMPOSITIONS” (CELLACT PHARMA GMBH, priority 2022, published 2026).

What was measured:
[1] = Table 9A: HPLC peaks over storage time, sample and storage not described; assay type: physicochemical
[2] = Solubility and pH stability of the API; assay type: physicochemical
[3] = API; cited from earlier work

SMILES: COc1cc([C@@H]2c3cc4c(cc3[C@@H](O[C@@H]3O[C@@H]5CO[C@@H](C)O[C@H]5[C@@H](O)[C@H]3O)[C@H]3COC(=O)[C@H]23)OCO4)cc(OC)c1OC(=O)OCC1COC(C)(C)O1 (stereo partly shown) [CAP 7.1, Etoposide toniribate]
- Peak %, CAP 7.1 RT: 20.25 ([1]; 5 days): 98.83%
- Peak %, RRT:0.51 RT:10.43 ([1]; 5 days): 0.09%
- Peak %, RRT: 0.54 RT: 10.89 (Etoposide) ([1]; 5 days): 0.17%
- Peak %, RRT: 0.95 RT: 19.13 ([1]; 5 days): 0.09%
- Peak %, RRT: 0.97 RT: 19.67 ([1]; 5 days): 0.67%
- Peak %, RRT: 1.10 RT: 22.32 ([1]; 5 days): 0.04%
- Peak %, RRT: 1.15 RT: 23.46 ([1]; 5 days): 0.07%
- Peak %, RRT: 1.19 RT: 24.11 ([1]; 5 days): 0.04%
- Peak %, CAP 7.1 RT: 20.25 ([1]; 12 days): 98.58%
- Peak %, RRT:0.51 RT:10.43 ([1]; 12 days): 0.09%
- Peak %, RRT: 0.54 RT: 10.89 (Etoposide) ([1]; 12 days): 0.22%
- Peak %, RRT: 0.95 RT: 19.13 ([1]; 12 days): 0.09%
- Peak %, RRT: 0.97 RT: 19.67 ([1]; 12 days): 0.87%
- Peak %, RRT: 1.10 RT: 22.32 ([1]; 12 days): 0.03%
- Peak %, RRT: 1.15 RT: 23.46 ([1]; 12 days): 0.07%
- Peak %, RRT: 1.19 RT: 24.11 ([1]; 12 days): 0.04%
- Peak %, CAP 7.1 RT: 20.25 ([1]; 17 days): 98.18%
- Peak %, RRT:0.51 RT:10.43 ([1]; 17 days): 0.17%
- Peak %, RRT: 0.54 RT: 10.89 (Etoposide) ([1]; 17 days): 0.33%
- Peak %, RRT: 0.95 RT: 19.13 ([1]; 17 days): 0.10%
- Peak %, RRT: 0.97 RT: 19.67 ([1]; 17 days): 1.10%
- Peak %, RRT: 1.10 RT: 22.32 ([1]; 17 days): 0.04%
- Peak %, RRT: 1.15 RT: 23.46 ([1]; 17 days): 0.04%
- Peak %, RRT: 1.19 RT: 24.11 ([1]; 17 days): 0.04%
- Peak %, CAP 7.1 RT: 20.25 ([1]; initial): 99.21%
- Peak %, RRT: 0.54 RT: 10.89 (Etoposide) ([1]; initial): 0.10%
- Peak %, RRT: 0.95 RT: 19.13 ([1]; initial): 0.10%
- Peak %, RRT: 0.97 RT: 19.67 ([1]; initial): 0.48%
- Peak %, RRT: 1.10 RT: 22.32 ([1]; initial): 0.05%
- Peak %, RRT: 1.15 RT: 23.46 ([1]; initial): 0.04%
- Peak %, RRT: 1.19 RT: 24.11 ([1]; initial): 0.03%
- solubility in water or aqueous buffer systems [2]: practically insoluble
- solubility in water [3]: poorly soluble
- stability at acidic and basic pH [3]: unstable
